# Assay results reported in ChEMBL document CHEMBL1142239, “Optimization of novel acyl pyrrolidine inhibitors of hepatitis C virus RNA-dependent RNA polymerase leading to a development candidate” (J Med Chem, 2007).
# Calls of active or inactive are those of the source. The rule behind the calls is not given here.
# Assays:
# Hepatitis C virus [1] = assay: Antiviral activity against HCV replicon containing HCV 1b genome transfected in Huh7 cells after 72 hrs by ELISA; format: functional, organism-based, Hepacivirus hominis; conditions: genotype 1b, Huh-7, 72 h
# [2] = Cytotoxicity against Vero cells after 4 days; format: cell-based; conditions: chlorocebus sabaeus, read-out: CCID50
# [3] = Bioavailability in Sprague-Dawley rat at 2 mg/kg, po and 1 mg/kg, iv; format: ADME, organism-based; conditions: in vivo
# Hepatitis C virus [4] = assay: Inhibition of HCV 1b RB01 NS5B by filtermat assay; parameters: species or system Hepatitis C virus subtype 1b
# [5] = Plasma clearance in Sprague-Dawley rat at 1 mg/kg, iv; format: ADME, organism-based; parameters: dose 1 mg/kg, route intravenous
# Hepatitis C virus [6] = assay: Inhibition of HCV 1b RB01 NS5B by SPA; parameters: species or system Hepatitis C virus subtype 1b
# [7] = Lipophilicity, log D of the compound; format: physicochemical; conditions: octanol/water
# Hepatitis C virus [8] = assay: Antiviral activity against HCV replicon containing HCV 1b genome transfected in Huh7 cells in presence of interferon alpha 2a; format: functional, organism-based; conditions: Hepacivirus hominis; genotype 1b; Huh-7
EC50 (Hepatitis C virus [1]) [nM],bioavailability [3] [%],IC50 (Hepatitis C virus [4]) [nM],clearance [5] [mL/min/kg],IC50 (Hepatitis C virus [6]) [nM],logD [7],SMILES,CC50 at 96 h [2] [nM],Activity (Hepatitis C virus [8])
5700,44,,12,2300,,COC[C@@H]1C[C@@](CC(C)C)(C(=O)O)N(C(=O)c2ccc(C(C)(C)C)c(OC)c2)[C@H]1c1nccs1,265000,
570,2,14,24,,,CC(C)C[C@@]1(C(=O)O)C[C@H](C(N)=O)[C@H](c2nccs2)N1C(=O)c1ccc(C(C)(C)C)c(Br)c1,> 500000,
210,12,,36,730,,COc1cc(C(=O)N2[C@@H](c3nccs3)[C@@H](CO)C[C@@]2(CC(C)C)C(=O)O)ccc1C(C)(C)C (racemic),358000,
> 20000,,3800,,,,CC(C)C[C@@]1(C(=O)O)C[C@H](C(=O)O)[C@H](c2nccs2)N1C(=O)c1ccc(C(C)(C)C)cc1 (racemic),> 500000,
12800,,,,3200,,CCOC[C@@H]1C[C@@](CC(C)C)(C(=O)O)N(C(=O)c2ccc(C(C)(C)C)c(OC)c2)[C@H]1c1nccs1 (racemic),214000,

# Second part, the compound before the results:
SMILES,EC50 (Hepatitis C virus [1]) [nM],bioavailability [3] [%],IC50 (Hepatitis C virus [4]) [nM],clearance [5] [mL/min/kg],IC50 (Hepatitis C virus [6]) [nM],logD [7],CC50 at 96 h [2] [nM],Activity (Hepatitis C virus [8])
CC(C)C[C@@]1(C(=O)O)C[C@H](C(N)=O)[C@H](c2nccs2)N1C(=O)c1ccc(C(C)(C)C)cc1,> 20000,2,970,21,,,430000,
CC(C)C[C@@]1(C(=O)O)C[C@H](C(N)=O)[C@H](c2nccs2)N1C(=O)c1ccc(C(C)(C)C)c(Cl)c1,1200,5,20,29,,,> 500000,
CCOC[C@H]1C[C@@](CC(C)C)(C(=O)O)N(C(=O)c2ccc(C(C)(C)C)c(OC)c2)[C@H]1c1nccs1,470,120,,5,430,2.7,142000,
COc1cc(C(=O)N2[C@@H](c3nccs3)[C@@H](C(N)=O)C[C@@]2(CC(C)C)C(=O)O)ccc1C(C)(C)C,610,0.6,5,37,,,> 500000,
COC[C@H]1C[C@@](CC(C)C)(C(=O)O)N(C(=O)c2ccc(C(C)(C)C)c(OC)c2)[C@H]1c1nccs1,390,59,,5,440,2.2,240000,Active
CC(C)C[C@@]1(C(=O)O)C[C@H](C(=O)O)[C@H](c2cccs2)N1C(=O)c1ccc(C(C)(C)C)cc1 (racemic),> 20000,,1100,,,,> 500000,
CC(C)C[C@@]1(C(=O)O)C[C@H](C(=O)O)[C@H](c2cccs2)N1C(=O)c1ccc(C(F)(F)F)cc1 (racemic),> 20000,,20000,,,,> 500000,
COc1cc(C(=O)N2[C@@H](c3nccs3)[C@H](CO)C[C@@]2(CC(C)C)C(=O)O)ccc1C(C)(C)C (racemic),1300,11,,39,1000,,482000,
